Reference: the supplement of paper PMC11208160

Assay: recombinant barcode read abundance after kanamycin selection (control-corrected) (log10(CPM+1)); higher = more efficient recombination; sequences stand for … in AGTGCAGAGAAAATCGGCCAGTTTTCTCTGCCTGCAGTCCGCATGCCGT…AGATTTATGCAGCGGACTGCCTTTCTCCCAAAGTGATAAACCGGACAGTATCATGGACCGGTTTTCCCGGTAATCCGTATTTGCAAGGTTGGTTTCACT; site = the 11-nt target
How it was run: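 Pooled oligos, each joining a target to an IS621 bridge RNA target-binding loop, were cloned and co-electroporated with a donor plasmid into E. coli. Selective plates carried chloramphenicol/ampicillin/kanamycin and 0.1 mM IPTG, while chloramphenicol/ampicillin LB agar served as control, with two replicates of each. Recombination efficiency rests on averaged, control-corrected counts per million of barcodes at recombinant junctions, shown as log10(CPM+1).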
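Note: IS621 recombinase and bridge RNA in Escherichia coli cells.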

Sequence | recombinant barcode read abundance (log10)
CCTTACACTTGGGTTCTAACCTGTTGCGG (site CCTGACACTCC) | 0.063
TCTTGGACTTGGGTTCTAACCTGTTGCTA (site TCTTGGACTCA) | 0.0354
GACCGGGCTTGGGTTCTAACCTGTTGCCT (site GACCGTGCTAG) | 0.268
AGATTTCCTTGGGTTCTAACCTGTTGCCT (site AGATTTCCTAG) | 0.326
CTATTTGCTTGGGTTCTAACCTGTTGCAA (site CTAGTTGCTTT) | 0.0402
GTGTGGACTTGGGTTCTAACCTGTTGCAG (site GTGTGGACTCT) | 2.18
GACTGAGCTTGGGTTCTAACCTGTTGCGG (site AGACAGTCTTG) | 0.046
GGCTTGTCTTGGGTTCTAACCTGTTGCCT (site GGCTTGTCTAG) | 0.655
AGATTTCCTTGGGTTCTAACCTGTTGCCT (site ACATTTCCTAG) | 0.218
GAGATATCTTGGGTTCTAACCTGTTGCCT (site GAGATATCTAG) | 2.07
TAATGTACTTGGGTTCTAACCTGTTGCTT (site TAATGTACTAA) | 0.0687
TTACCCACTTGGGTTCTAACCTGTTGCCT (site TTACCAACTAG) | 0.0275
AATTGTCCTTGGGTTCTAACCTGTTGCTT (site AATTGTCCTAC) | 0.257
GTGTATCCTTGGGTTCTAACCTGTTGCCA (site GTGAAGCCTTG) | 0.186
ACAATACCTTGGGTTCTAACCTGTTGCCT (site ACAATACCTAG) | 1.16
CCAAGCGCTTGGGTTCTAACCTGTTGCCT (site CCAAGCCCTAG) | 0.0283
TCTAAGTCTTGGGTTCTAACCTGTTGCCC (site TCTAAGTCTCG) | 0.0902
ACGCACACTTGGGTTCTAACCTGTTGCCT (site CCGCACACTAG) | 0.182
CTAAAGTCTTGGGTTCTAACCTGTTGCCC (site CTAAAGTCTGG) | 0.4
ACTGAGTCTTGGGTTCTAACCTGTTGCAT (site ACTGAGTCTAT) | 2.69
TTACGTACTTGGGTTCTAACCTGTTGCCT (site GTACGTACTAG) | 0.19
TAAAAGCCTTGGGTTCTAACCTGTTGCCT (site TAAAAGTCTAG) | 0.224

Sequence | recombinant barcode read abundance (log10)
GGTGGGTCTTGGGTTCTAACCTGTTGCGT (site GGTGGGTCTAT) | 1.93
TTAACTACTTGGGTTCTAACCTGTTGCTT (site TTAACTACTGA) | 0.294
GTTCAACCTTGGGTTCTAACCTGTTGCCT (site GCTCAACCTAG) | 0.154
AGCCGAACTTGGGTTCTAACCTGTTGCCT (site TGCCGAACTAG) | 0.0692
GACCCTACTTGGGTTCTAACCTGTTGCCT (site TACCCTACTAG) | 0.119
AGGAACCCTTGGGTTCTAACCTGTTGCTT (site AGGAACCCTGA) | 0.127
GTATCAGCTTGGGTTCTAACCTGTTGCCT (site GTATCACCTAG) | 0.226
GTTACGGCTTGGGTTCTAACCTGTTGCCT (site GTTCCGGCTAG) | 0.0623
GTTTGAGCTTGGGTTCTAACCTGTTGCCT (site GTTCGAGCTAG) | 0.261
TGTCTCCCTTGGGTTCTAACCTGTTGCGT (site TGTCTCCCTAC) | 1.04
CGTTGTCCTTGGGTTCTAACCTGTTGCAA (site CGTTGTCCTTT) | 0.347
TAGGCATCTTGGGTTCTAACCTGTTGCTC (site TAGACATCTGA) | 0.206
TTCAAGACTTGGGTTCTAACCTGTTGCCT (site TTCAAGGCTAG) | 0
TCTGGGGCTTGGGTTCTAACCTGTTGCAG (site TCTGGGGCTCT) | 2.15
ATGATTGCTTGGGTTCTAACCTGTTGCCT (site ATGAATGCTAG) | 0.149
ATCTGGGCTTGGGTTCTAACCTGTTGCCT (site AACTGGGCTAG) | 0.339
GTGTCTACTTGGGTTCTAACCTGTTGCCT (site GTGTCTACTAG) | 0.754
ACCGGTCCTTGGGTTCTAACCTGTTGCGT (site ATCGTTCCTAC) | 0.0193
CTGGGCACTTGGGTTCTAACCTGTTGCCT (site CGGGGCACTAG) | 0.164
ATTGGATCTTGGGTTCTAACCTGTTGCCT (site ATTGGATCTAG) | 0.391
GTATGATCTTGGGTTCTAACCTGTTGCCT (site GTATGAACTAG) | 0.026
CGACGTCCTTGGGTTCTAACCTGTTGCGG (site TGAAGTCCTCC) | 0.00826

Sequence | recombinant barcode read abundance (log10)
TAGGATTCTTGGGTTCTAACCTGTTGCGC (site TAGGATTCTGC) | 2.55
TATTTGCCTTGGGTTCTAACCTGTTGCCT (site TAATTGCCTAG) | 0.0398
CTATTATCTTGGGTTCTAACCTGTTGCCT (site CTGTTATCTAG) | 0.0433
AGCGAAGCTTGGGTTCTAACCTGTTGCCT (site AGCGAGGCTAG) | 0.3
AAATTTCCTTGGGTTCTAACCTGTTGCCT (site AAATTTCCTAG) | 0.42
ATTACCTCTTGGGTTCTAACCTGTTGCCT (site AATACCTCTAG) | 0.0245
ACTATGACTTGGGTTCTAACCTGTTGCTT (site ACTATGACTAA) | 0.75
AACTCTCCTTGGGTTCTAACCTGTTGCAT (site AACTATCCTAT) | 0.11
CTACCTACTTGGGTTCTAACCTGTTGCGG (site CTACCTACTCC) | 2.72
CGAACATCTTGGGTTCTAACCTGTTGCTT (site CGAACATCTAA) | 0.144
ATAGGTCCTTGGGTTCTAACCTGTTGCTG (site ATGGGTCCTCG) | 0.0247
TGCTGTGCTTGGGTTCTAACCTGTTGCCT (site TGCTGTGCTAG) | 0.29
ACACCGCCTTGGGTTCTAACCTGTTGCCT (site ACACCGCCTAG) | 0.299
ACCAATCCTTGGGTTCTAACCTGTTGCCT (site ACCAATACTAG) | 0.087
CCGTGAACTTGGGTTCTAACCTGTTGCCT (site CAGTGAACTAG) | 0.0153
TCTGTCTCTTGGGTTCTAACCTGTTGCCT (site TCTGTCTCTAG) | 2.03
GGCCGGCCTTGGGTTCTAACCTGTTGCCT (site GGCCGGTCTAG) | 0.191
TGTAATCCTTGGGTTCTAACCTGTTGCCT (site TGTAATTCTAG) | 0.0105
GCGGACTCTTGGGTTCTAACCTGTTGCCA (site GCGTACTCTAG) | 0.0401
AAATCCTCTTGGGTTCTAACCTGTTGCCT (site TAATCCTCTAG) | 0.409
GTGATAGCTTGGGTTCTAACCTGTTGCGG (site GTGATAGCTCC) | 1.12
TGTTGAGCTTGGGTTCTAACCTGTTGCCG (site TGTGGAGCTCG) | 0.258

Sequence | recombinant barcode read abundance (log10)
CGAAGATCTTGGGTTCTAACCTGTTGCCT (site CAAAGATCTAG) | 0.142
TAGTACCCTTGGGTTCTAACCTGTTGCAC (site TAGTACCCTCT) | 0.298
ATAAGTGCTTGGGTTCTAACCTGTTGCCA (site ATAAGTGCTTG) | 1.15
AGCCTATCTTGGGTTCTAACCTGTTGCCA (site CTAGCCGCTAA) | 0.109
CTCTCGGCTTGGGTTCTAACCTGTTGCCT (site CTCTGGGCTAG) | 0.138
CAAGTGGCTTGGGTTCTAACCTGTTGCCT (site CAAGTAGCTAG) | 0.417
TGGTATACTTGGGTTCTAACCTGTTGCCT (site TGGTATTCTAG) | 0.122
ATATGTCCTTGGGTTCTAACCTGTTGCAG (site ATAGGACCTCT) | 0
GTCCCTCCTTGGGTTCTAACCTGTTGCCT (site GTCCCTCCTAC) | 0.116
GGCACTGCTTGGGTTCTAACCTGTTGCCT (site GGCACTGCTAG) | 0.34
CGGCACACTTGGGTTCTAACCTGTTGCCT (site CGGCACACTAG) | 0.761
TACCGTCCTTGGGTTCTAACCTGTTGCAT (site TATCGTCCTAT) | 0.155
GTTTGAGCTTGGGTTCTAACCTGTTGCCT (site GTTGGAGCTAG) | 0.05
TAAATCACTTGGGTTCTAACCTGTTGCCG (site TAAATCACTCG) | 0.281
CACATACCTTGGGTTCTAACCTGTTGCAT (site CACATACCTAT) | 1.87
TCTCAGCCTTGGGTTCTAACCTGTTGCCT (site TCTCCGCCTAG) | 0.0825
AAGTGGACTTGGGTTCTAACCTGTTGCCT (site AAGTCGACTAG) | 0.121
CGGAACTCTTGGGTTCTAACCTGTTGCCT (site AGGAACTCTAG) | 0.274
GGTCCTGCTTGGGTTCTAACCTGTTGCCT (site AGTCCTGCTAG) | 0.366
TTAAGTCCTTGGGTTCTAACCTGTTGCAT (site TTAAGTCCTAT) | 0.498
